Test results as given in US20150140015A1, “METHODS AND PHARMACEUTICAL COMPOSITIONS FOR THE TREATMENT OF PANCREATIC CANCER” (INSERM (Institut National de la Sante et de la Recherche …, priority 2013, published 2015).

How the values were obtained:
AsPC-1 cells = assay: Cell growth of AsPC-1 cells (cell counting); assay type: cell-based, human; conditions: Example 1; Orexin-A treatment of the OX1R-expressing AsPC-1 cell line
Protocol: FIG. 9. Effect of Orexin-B anti-OX1R antibodies on cell growth of AsPC-1 cells. Cells were incubated with 0.1 μM of OxB or antibodies for 48 h in culture medium and then cells were counted in order to estimate the cellular growth.
The aims of this study were: 1/ to investigate the presence of OX1R in human PAC cell lines and to analyze orexin-A effects in relation to apoptosis; 2/ to develop an in vivo heterotopic xenograft model from the cell lines expressing OX1R, for the study of tumor growth in response to Orexin-A. The expression of OX1R was studied at mRNA (RT-PCR), proteins (immunocytochemistry) and functional levels in 3 PAC cell lines (AsPC-1, HPAF-II and SW1990). The development of an animal model (heterotopic xenograft) from the cell line expressing OX1R, has allowed studying the effect of Orexin-A in tumor growth. Resected tumors were analyzed by immunohistochemistry. Only AsPC-1 cell line expresses OX1R.
The development of antibodies directed against OX1R were produced by a phage display strategy and the antibody selection was performed by using HEK and HEK stably expressing OX1R (HEK-OX1R) cell lines. […] Cells were incubated with 0.1 μM of OxB or antibodies for 48 h in culture medium and then cells were counted in order to estimate the cellular growth. […]

[1] = test system: parental HPAF-II cells xenografted in nude mice; assay: Tumorigenicity assay: parental HPAF-II cells xenografted in nude mice; assay type: in vivo; conditions: daily treatment with 1 mole orexin-A/kg (so in the source)
Protocol: (§1) FIG. 8A-C. Effect of daily inoculation of orexin-A on the growth of tumors developed by xenografting OX1R expressing recombinant HPAF-II cells in nude mice. Parental HPAF-II (A) or recombinant OX1R/HPAF-II/cells (B) were inoculated in the flank of nude mice at day 0. Mice were injected daily intraperitoneally with 100 μl of 1 μmoles of orexin-A/Kg solutions starting at day 0 for both cell lines (◯) or day 28 for OX1R/HPAF-II cells (▴) or with 100 μl of PBS ([…]) for controls. The development of tumors was followed by caliper measurement; C. Formalin-fixed xenografted HPAF-II or OX1R/HPAF-II tumors from nude mice intraperitoneally injected daily or not with 1 μmoles/Kg orexin-A were analyzed by cleaved caspase-3 immunostaining. Cleaved caspase-3 positive cells were counted in 10 different fields, each comprising 500 tumoral cells, in the presence (black bars) or absence (white bars) of 50 days orexin-A treatment. Data are the means±SE of 6 tumors in each group; *** p<0.01 versus control.
(§2) Control mice received PBS.

[2] = test system: recombinant HPAF-II/OX1R cells xenografted in nude mice; assay: Tumorigenicity assay: recombinant HPAF-II/OX1R cells xenografted in nude mice; assay type: in vivo
Protocol: as §1, §2
After dewaxing, rehydrating tumor paraffin sections, and antigen retrieval by pretreatment with high temperature at pH 9, immunohistochemical procedures were carried out using an automated immunohistochemical stainer according to the manufacturer's guidelines (Bond-Max slide stainer, Menarini, Leica Microsystems). For immunohistochemistry on cell lines, cells in pellets were fixed in formalin, embedded in cell blocks (Shandon Cytoblock; Thermo Scientific; USA) and cut into 3 μm sections. […] OX1R immunostaining was evaluated by two investigators (TV and AC) by calculating a score (0-300) obtained by multiplying the intensity (negative, 0; weak, 1; moderate, 2; and strong, 3) by the percentage of stained cells. The pattern of expression (cytoplasmic, membranous, and nuclear) was also recorded, and a mean score was calculated for each tumor. […] Cleaved caspase-3 immunostaining was determined by calculating the percentage of tumor cells stained in 10 fields of xenografted tumor cells, each field comprising 500 tumor cells.

Substance: orexin-A: 33 amino acid hypothalamic neuropeptide, OX1R agonist, SEQ ID NO:2; peptide from GL Biochemicals
- cell growth inhibition (AsPC-1 cells): 32%
- tumor growth inhibition [1]: unable to promote tumor growth inhibition
- caspase-3 activation in tumors as compared to tumors from parental HPAF-II cells ([2]; 1 μmoles/Kg daily i.p., 50 days, cleaved caspase-3 positive cells): 3.5 fold
- tumor volumes, treatment of established tumors ([2]; orexin-A started after 28 days tumor growth): significant reduction in tumor volumes
- inhibition of tumor development ([2]; treated daily with orexin-A from day 0): about 65%
